Values after ≈ are worked out from the molar mass of the structure shown. Values joined by “and” are separate entries in the source; they are usually repeats but may differ in a detail not shown here. Identical values can stand only once. Like-named read-outs stand apart in the source and are kept apart here.
What was measured:
SARS-CoV-2 nsp3-mac1 [1] = target: T1, SARS-CoV-2 nsp3-mac1 (Severe acute respiratory syndrome coronavirus 2, UniProt P0DTD1); assay: biochemical; format: biochemical; conditions: for inhibition at 50 µM / inhibition at 100 µM: read-out: perc_inhibition_mean
SARS-CoV-2 nsp3-mac1 [2] = target: T1, SARS-CoV-2 nsp3-mac1; assay: biochemical; parameters: SARS-CoV-2 nsp3 macrodomain TR-FRET single point, per cent inhibition, n=2; conditions: read-out: perc_inhibition_mean, batch_name=ASAP-0000197-001
SARS-CoV-2 nsp3-mac1 [3] = target: T1, SARS-CoV-2 nsp3-mac1; assay: biochemical
[4] = Permeability Papp (AB) MDR1/MDCKII; conditions: In vitro MDR1-MDCKII permeability, recovery A to B, mean
[5] = Hepatic microsomal stability, MLM; format: in vitro ADME
LogD = conditions: pH 7.4
[6] = Hepatic microsomal stability, HLM; format: in vitro ADME, human; conditions: In vitro human liver microsomal stability; for perc_remaining_no_cofactor: no cofactor; for microsomal CLint: liver microsomes
[7] = In vitro kinetic solubility
[8] = tested on: SARS-CoV-2, isolate USA-WA1/2020; assay: microbe, parasite or virus in culture; format: cell-based; conditions: HeLa-ACE2 SARS-CoV-2 antiviral effect without P-gp inhibitor
SARS-CoV-2 = assay: Antiviral effect in iPSC-derived pneumocyte system; format: cell-based; conditions: iPSC pneumocytes SARS-CoV-2 antiviral effect
in vitro = assay: in vitro; parameters: Cytotoxicity in iPSC-derived pneumocytes, CC50; conditions: human, ipsc-derived pneumocytes; ASAP-0008327-001=ASAP-0008438-001; read-out: 50.0
Excerpt: Finally, we consider the hypothesis that interferon response triggers ADP-ribosylation, thus profiling the compounds in enhanced and physiologically relevant interferon environments could reveal detectable antiviral effects. […] Furthermore, HeLa-ACE2 cells, and all cancerous cell lines, display defective innate immune response ([1]). As such, we also assess our compound in a primary-like iPSC-derived pneumocyte system (Figure 7C), showing likewise a lack of antiviral activity in this physiologically relevant innate immunity system.

iPSC pneumocytes = iPSC pneumocytes cytotoxicity; format: cell-based; conditions: protocol iPSC pneumocytes cytotoxicity
Excerpt: Supplement media-1.zip/Cytotoxicity.csv, table | column: cc10; cc50; perc_min_measured; perc_max_measured

MDR1 = assay: Permeability Papp (AB) MDR1/MDCKII; conditions: dog, MDCK-MDR1, papp_a_to_b_mean, In vitro MDR1-MDCKII permeability, A to B, mean
[9] = IC50, nsp3-mac1 activity, Figures 1-3 and text
[10] = In vitro mouse liver microsomal stability
[11] = In vitro mouse liver microsomal stability, no cofactor
[12] = HTRF IC50, Figure 4A, racemic mixture
[13] = maximum measured response of dose series

Q: For `OC[C@@H](Nc1ncnc2[nH]c(I)cc12)c1ccccc1` [ASAP-0000197], which perc_inhibition_mean (SARS-CoV-2 nsp3-mac1 [1]; SARS-CoV-2 nsp3 macrodomain TR-FRET single point, concentration 50.0 uM) is on record?
A: 26.134%

Q: What about the inhibition at 50 µM (SARS-CoV-2 nsp3-mac1 [2]) of the same compound?
A: 26.1%

Q: What about the hill_slope (SARS-CoV-2 nsp3-mac1 [3]; TR-FRET dose response curve fit) of the same compound?
A: 1.082

Q: And the perc_max_measured (SARS-CoV-2 nsp3-mac1 [3]; TR-FRET dose response, highest measured response)?
A: 42.06%

Q: What about the perc_min_measured (SARS-CoV-2 nsp3-mac1 [3]; TR-FRET dose response, lowest measured response) of the same compound?
A: -3.652%

Q: What about the IC50 (SARS-CoV-2 nsp3-mac1 [3]; TR-FRET dose response, supplement, read-out: ic50) of the same compound?
A: > 124 µM

Q: Which results are given for `O=C(O)c1cscc1C(=O)N1CCC(c2ccn3ncc(C(=O)N4CCCCC4)c3c2)CC1` [ASAP-0000259]?
A: inhibition at 50 µM (SARS-CoV-2 nsp3-mac1 [1]): 47.7%; inhibition at 100 µM (SARS-CoV-2 nsp3-mac1 [1]): 66.7%; IC50 (SARS-CoV-2 nsp3-mac1 [3]; [9]): 44 µM

Q: For `Cc1[nH]c2ncnc(NC(=O)c3ccncc3Cl)c2c1C` [ASAP-0000266], which inhibition at 50 µM (SARS-CoV-2 nsp3-mac1 [1]) is on record?
A: 69.6%

Q: What about the inhibition at 100 µM (SARS-CoV-2 nsp3-mac1 [1]) of the same compound?
A: 85.6%

Q: What about the IC50 (SARS-CoV-2 nsp3-mac1 [3]; [9]) of the same compound?
A: 25 µM

Q: For `CC(C)C(Nc1ncnc2[nH]ccc12)c1ccc2c(c1)NC(=O)CO2` (centres unmarked) [ASAP-0008431], which perc_recovery_a_to_b_mean [4] is on record?
A: 86.0% and 98.9%

Q: And the clint [5, 10]?
A: 78.0 µL/min/mg

Q: What about the perc_remaining [5, 10] of the same compound?
A: 26.0% and 27.0%

Q: And the t_half [5, 10]?
A: 20.9 min and 21.4 min

Q: And the perc_remaining_no_cofactor [5, 11]?
A: 110.0%

Q: What about the perc_remaining_no_cofactor ([5]; In vitro mouse liver microsomal stability; no cofactor) of the same compound?
A: 93.0%

Q: And the microsomal CLint ([5]; mouse, liver microsomes, In vitro mouse liver microsomal stability)?
A: 80 µL/min/mg

Q: What about the logd (LogD; pH 7.4, logd, In vitro LogD) of the same compound?
A: 2.2

Q: And the IC50 (SARS-CoV-2 nsp3-mac1 [3]; [12])?
A: 0.39 µM

Q: And the clint [6]?
A: 31.0 µL/min/mg

Q: And the perc_remaining [6]?
A: 73.0% and 56.0%

Q: What about the t_half [6] of the same compound?
A: 79.0 min and 54.3 min

Q: And the perc_remaining_no_cofactor [6]?
A: 105.0% and 92.0%

Q: And the microsomal CLint ([6]; human)?
A: 21 µL/min/mg

Q: What about the solubility_mean ([7]; In vitro kinetic solubility, ph 7.4) of the same compound?
A: 374 µM (≈ 126 µg/mL)

Q: And the solubility ([7]; pH 7.4, solubility_mean, In vitro kinetic solubility, ph 7.4)?
A: 389 µM (≈ 131 µg/mL)

Q: Which results are given for `CC(C)[C@@H](Nc1ncnc2[nH]c(C(N)=O)cc12)c1ccc2c(c1)OCCO2` [ASAP-0008438]?
A: perc_max_measured [8, 13]: 108.483% and 95.443%; EC50 ([8]; read-out: ec50): > 20 µM; EC90 ([8]; read-out: ec90): > 20 µM; EC50 (SARS-CoV-2): > 50 µM; EC90 (SARS-CoV-2): > 50 µM; perc_max_measured (SARS-CoV-2; [13]): 162.718%; perc_min_measured (SARS-CoV-2; minimum measured response of dose series): 51.066%; cc10 (HeLa-ACE2 cells): < 0.082 µM; cc50 (HeLa-ACE2 cells): < 0.082 µM; perc_max_measured (HeLa-ACE2 cells; protocol HeLa-ACE2 cytotoxicity, highest measured response of the dose series): 102.95% and 76.872%; perc_min_measured (HeLa-ACE2 cells; protocol HeLa-ACE2 cytotoxicity, lowest measured response of the dose series): 63.007% and 58.0%; CC50 (in vitro): > 50 µM; CC50 (iPSC pneumocytes): > 50 µM; cc10 (iPSC pneumocytes): > 50.0 µM; perc_max_measured (iPSC pneumocytes; highest measured response of the dose series): 107.376%; perc_min_measured (iPSC pneumocytes; lowest measured response of the dose series): 74.883%

Q: For `CNC(=O)Cn1cc(-c2cc3c(NC(c4ccc5c(c4)OCCO5)C(C)C)ncnc3[nH]2)cn1` (centres unmarked) [ASAP-0008565], which perc_recovery_a_to_b_mean [4] is on record?
A: 94.1%

Q: What about the Papp A→B (MDR1) of the same compound?
A: 1.94 ×10⁻⁶ cm/s

Q: And the perc_remaining [5, 10]?
A: 46.0%

Q: And the t_half [5, 10]?
A: 35.7 min

Q: And the perc_remaining_no_cofactor [5, 11]?
A: 90.0%

Q: What about the microsomal CLint ([5]; liver microsomes; In vitro mouse liver microsomal stability) of the same compound?
A: 47 µL/min/mg

Q: What about the logd (LogD) of the same compound?
A: 2.9

Q: What about the IC50 (SARS-CoV-2 nsp3-mac1 [3]; [9]) of the same compound?
A: 0.25 µM

Q: What about the “increase in potency relative to the starting point” value (SARS-CoV-2 nsp3-mac1 [3]; relative to ASAP-000450) of the same compound?
A: 10 x

Q: What about the perc_remaining [6] of the same compound?
A: 14.0%

Q: What about the t_half [6] of the same compound?
A: 14.0 min

Q: What about the perc_remaining_no_cofactor [6] of the same compound?
A: 92.0%

Q: What about the microsomal CLint [6] of the same compound?
A: 119 µL/min/mg

Q: What about the solubility ([7]; pH 7.4) of the same compound?
A: 289 µM (≈ 133 µg/mL)

Q: With `CC(C)C(Nc1ncnc2[nH]c(C(=O)NC3CCN(C)C3)cc12)c1ccc2c(c1)OCCO2` (centres unmarked) [ASAP-0010747] as the compound, how does the IC50 (SARS-CoV-2 nsp3-mac1 [3]; [12]) read?
A: 0.46 µM

From article doi:10.1101/2024.08.19.608619, “Discovery of potent SARS-CoV-2 nsp3 macrodomain inhibitors uncovers lack of translation to cellular antiviral response” (bioRxiv, 2024)
